The values that follow are results of earlier work, collected in paper PMC5132270 (Cancer Science, 2016).

Data set [1] has as its system models of crizotinib resistance. The note with it: preclinical studies.
In data set [2] the test system is ALK+ NSCLC.

Each structure is given as a SMILES string.

As for `CCc1cc2c(cc1N1CCC(N3CCOCC3)CC1)C(C)(C)c1[nH]c3cc(C#N)ccc3c1C2=O` [alectinib], the antitumor effect entry in data set [1] was “tumor size reduction”. For `Cc1cc(Nc2ncc(Cl)c(Nc3ccccc3S(=O)(=O)C(C)C)n2)c(OC(C)C)cc1C1CCNCC1` [ceritinib], the “median PFS” value in data set [2] was 7.0 months.
